Measurements from patent publication US11970461B1, “1-hexyl-5-(4-methoxyphenyl)-2,4-diphenyl-1H-imidazole as an antimicrobial compound” (KING FAISAL UNIVERSITY, priority 2023, dated 2024).

What was measured:
Escherichia coli = assay: antimicrobial testing by agar dilution, Escherichia coli; type: cell-based; conditions: after 10, 20, 40 and 60 minutes at all dilutions 1:100, 1:200, 1:400, 1:800
Experimental: (§1) The antimicrobial properties of the 1-hexyl-5-(4-methoxyphenyl)-2,4-diphenyl-1H-imidazole was studied by the method of agar dilution. Test solutions of each compound was prepared in concentration of 1% using dimethylformamide as a solvent then they are diluted in physiological solution to obtain the final experimental dilutions 1:100, 1:200, 1:400, 1:800. The effect of these substances are compared with furacillin in a controllable study. The testing microbes used were gram positive bacteria Staphylococcus aureus, gram negative bacteria Escherichia coli, Pseudomonas aeruginosa and Candida albicans fungi were taken. The experiments used for this survey were meat-pentonlu agar (EPA) for cultivation of bacteria and Saburo environment for fungi. Each experiment used 1 ml of test solution on each plate 500 min. Add 2 drops of emulsified with microbes feel. All experimental samples were taken from the agar after 10, 20, 40, 60 minutes in the environment on the basis of Patrk planted. Bacteria were cultivated at a temperature of 37° C. for 1 day and the mushroom was kept in a thermostat for […] at a temperature of 28° C. Then the results were checked.

Pseudomonas aeruginosa = assay: antimicrobial testing by agar dilution, Pseudomonas aeruginosa; type: cell-based; conditions: after 10, 20, 40 and 60 minutes at all dilutions 1:100, 1:200, 1:400, 1:800
Experimental: as §1

Candida albicans = assay: antimicrobial testing by agar dilution, Candida albicans; type: cell-based; conditions: after 10, 20, 40 and 60 minutes at all dilutions 1:100, 1:200, 1:400, 1:800
Experimental: as §1

Staphylococcus aureus = assay: antimicrobial testing by agar dilution, Staphylococcus aureus; type: cell-based; conditions: after 10, 20, 40 and 60 minutes at all dilutions 1:100, 1:200, 1:400, 1:800
Experimental: as §1

melting point: 161 to 162 °C
Compound: CCCCCCn1c(-c2ccccc2)nc(-c2ccccc2)c1-c1ccc(OC)cc1 [1-hexyl-5-(4-methoxyphenyl)-2,4-diphenyl-1H-imidazole]
inhibition activity, Escherichia coli (Escherichia coli): higher inhibition activity | inhibition activity, Pseudomonas aeruginosa (Pseudomonas aeruginosa): higher inhibition activity | inhibition activity, Candida albicans (Candida albicans): higher inhibition activity | inhibition activity, Staphylococcus aureus (Staphylococcus aureus): higher inhibition activity
